Measured values as given in ChEMBL document CHEMBL3864162, “Discovery of potent inhibitors of the lysophospholipase autotaxin” (Bioorg Med Chem Lett, 2016).

Key:
Autotaxin [1] = molecular target: T1, Autotaxin (Homo sapiens, UniProt Q13822); experiment: Inhibition of ATX in human plasma assessed as decrease in hydrolysis of lysophosphatidylcholine by measuring choline release after 24 hrs by horseradish peroxidase/choline oxidase-coupled assay; assay type: cell-free
[2] = Intrinsic clearance in human liver microsomes assessed per gram of liver at 1 uM in presence of NADPH regenerating system measured up to 45 mins by UPLC/MS/MS analysis; assay type: ADME; conditions: 0.75 h
[3] = Intrinsic clearance in CD1 mouse liver microsomes assessed per gram of liver at 1 uM in presence of NADPH regenerating system measured up to 45 mins by UPLC/MS/MS analysis; assay type: ADME; conditions: 0.75 h
[4] = Cmax in Balb-c nu/nu mouse at 100 mg/kg, po measured up to 7 hrs by UPLC/MS/MS spectrometry analysis; assay type: ADME, organism-based; parameters: dose 100 mg/kg, route oral; conditions: in vivo
in vivo [5] = conditions: Balb-c nu/nu, mouse, blood, po, 100 mg/kg
in vivo [6] = conditions: Balb-c nu/nu, mouse, blood, po, 30 mg/kg
[7] = Intrinsic clearance in rat liver microsomes assessed per gram of liver; assay type: ADME
[8] = AUC in Balb-c nu/nu mouse at 100 mg/kg, po measured up to 7 hrs by UPLC/MS/MS spectrometry analysis; assay type: ADME, organism-based; parameters: dose 100 mg/kg, time < 7 hr, route oral; conditions: in vivo
Mus musculus [9] = experiment: Reduction in plasma LPA C16:0 levels in Balb-c nu/nu mouse xenografted with human MDA-MB-231-luc cells at 30 to 100 mg/kg, po by UPLC/MS/MS analysis relative to control; assay type: functional
Autotaxin [10] = molecular target: T1, Autotaxin; experiment: Inhibition of ATX in human plasma assessed as decrease in LPA C18:1 levels after 24 hrs by horseradish peroxidase/choline oxidase-coupled assay
[11] = Blood clearance in Sprague-Dawley rat at 1 mg/kg, iv administered as bolus dose measured up to 20 hrs by UPLC/MS/MS spectrometry analysis; assay type: ADME, organism-based
Mus musculus [12] = species: Mus musculus; experiment: animal or person; conditions: Balb-c, Plasma
Description: Reduction in plasma LPA C16:0 levels in po dosed Balb-c nu/nu mouse xenografted with human MDA-MB-231-luc cells by UPLC/MS/MS analysis

[13] = Fraction unbound in mouse plasma; assay type: ADME, cell-free
[14] = Half life in CD1 mouse blood at 1 mg/kg, iv administered as bolus dose measured up to 7 hrs by UPLC/MS/MS spectrometry analysis; assay type: ADME, organism-based
Mus musculus [15] = species: Mus musculus; experiment: animal or person; conditions: Balb-c, Plasma; remark: listed apart in the source
Description: Reduction in plasma LPA C20:4 levels in po dosed Balb-c nu/nu mouse xenografted with human MDA-MB-231-luc cells by UPLC/MS/MS analysis

Mus musculus [16] = experiment: Reduction in plasma LPA C18:1 levels in Balb-c nu/nu mouse xenografted with human MDA-MB-231-luc cells at 30 to 100 mg/kg, po by UPLC/MS/MS analysis relative to control; assay type: functional
[17] = Volume of distribution at steady state in CD1 mouse at 1 mg/kg, iv administered as bolus dose measured up to 7 hrs by UPLC/MS/MS spectrometry analysis; assay type: ADME, organism-based; conditions: in vivo, read-out: Vdss
[18] = Half life in Balb-c nu/nu mouse blood at 100 mg/kg, po measured up to 7 hrs by UPLC/MS/MS spectrometry analysis; assay type: ADME, organism-based
[19] = Blood clearance in CD1 mouse at 1 mg/kg, iv administered as bolus dose measured up to 7 hrs by UPLC/MS/MS spectrometry analysis; assay type: ADME, organism-based
[20] = Cmax in Balb-c nu/nu mouse at 10 mg/kg, po measured up to 7 hrs by UPLC/MS/MS spectrometry analysis; assay type: ADME, organism-based; parameters: dose 10 mg/kg, route oral; conditions: in vivo
in vivo [21] = conditions: Sprague-Dawley, rat, po, 3 mg/kg
Mus musculus [22] = experiment: Reduction in plasma LPA C20:4 levels in Balb-c nu/nu mouse xenografted with human MDA-MB-231-luc cells at 30 to 100 mg/kg, po by UPLC/MS/MS analysis relative to control; assay type: functional
[23] = AUC in Balb-c nu/nu mouse at 10 mg/kg, po measured up to 7 hrs by UPLC/MS/MS spectrometry analysis; assay type: ADME, organism-based; parameters: time < 7 hr, dose 10 mg/kg, route oral; conditions: in vivo
[24] = Half life in Sprague-Dawley rat blood at 1 mg/kg, iv administered as bolus dose or 3 mg/kg, po administered via gastric gavage measured up to 20 hrs by UPLC/MS/MS spectrometry analysis; assay type: ADME, organism-based
Mus musculus [25] = species: Mus musculus; experiment: animal or person; conditions: Balb-c, Plasma; remark: listed apart in the source
Description: Reduction in plasma LPA C18:1 levels in po dosed Balb-c nu/nu mouse xenografted with human MDA-MB-231-luc cells by UPLC/MS/MS analysis

[26] = Fraction unbound in rat plasma; assay type: ADME, cell-free
[27] = Cmax in Balb-c nu/nu mouse at 30 mg/kg, po measured up to 7 hrs by UPLC/MS/MS spectrometry analysis; assay type: ADME, organism-based; parameters: dose 30 mg/kg, route oral; conditions: in vivo
Mus musculus [28] = species: Mus musculus; experiment: animal or person; conditions: Balb-c, Plasma; remark: listed apart in the source
Description: Reduction in plasma LPA C18:2 levels in po dosed Balb-c nu/nu mouse xenografted with human MDA-MB-231-luc cells by UPLC/MS/MS analysis

Autotaxin [29] = molecular target: T1, Autotaxin; experiment: Inhibition of human recombinant ATX using Rac-1-Palmitoyl-glycero-3-phosphocholine as substrate incubated for 2 hrs using ADHP fluorogenic peroxidase substrate by horseradish peroxidase/choline oxidase-coupled assay
[30] = AUC in Balb-c nu/nu mouse at 30 mg/kg, po measured up to 7 hrs by UPLC/MS/MS spectrometry analysis; assay type: ADME, organism-based; parameters: time < 7 hr, dose 30 mg/kg, route oral; conditions: in vivo
[31] = Half life in Balb-c nu/nu mouse blood at 10 mg/kg, po measured up to 7 hrs by UPLC/MS/MS spectrometry analysis; assay type: ADME, organism-based
[32] = Half life in Balb-c nu/nu mouse blood at 30 mg/kg, po measured up to 7 hrs by UPLC/MS/MS spectrometry analysis; assay type: ADME, organism-based
Mus musculus [33] = experiment: Reduction in plasma LPA C18:2 levels in Balb-c nu/nu mouse xenografted with human MDA-MB-231-luc cells at 30 to 100 mg/kg, po by UPLC/MS/MS analysis relative to control; assay type: functional
Mus musculus [34] = experiment: Toxicity in Balb-c nu/nu mouse at 100 mg/kg, po bid administered for 5 days; assay type: organism-based; conditions: in vivo, 120 h
[35] = Half life in CD1 mouse blood at 0.5 mg/kg, iv administered as bolus dose measured up to 7 hrs by UPLC/MS/MS spectrometry analysis; assay type: ADME, organism-based
[36] = Volume of distribution at steady state in CD1 mouse at 0.5 mg/kg, iv administered as bolus dose measured up to 7 hrs by UPLC/MS/MS spectrometry analysis; assay type: ADME, organism-based; conditions: in vivo, read-out: Vdss
[37] = Blood clearance in CD1 mouse at 0.5 mg/kg, iv administered as bolus dose measured up to 7 hrs by UPLC/MS/MS spectrometry analysis; assay type: ADME, organism-based
Autotaxin [38] = molecular target: T1, Autotaxin; experiment: Inhibition of human recombinant ATX using FS-3 as substrate incubated in dark for 45 mins by fluorescence assay

For C[C@H](NC(=O)CCc1nc2ccncc2n1Cc1ccc(OC(F)(F)F)cc1)c1ccc(F)cc1, the IC50 (Autotaxin [1]) was 0.032 µM.
O=C(CCc1nc2cccnc2n1Cc1ccccc1)NCc1ccc(F)cc1 showed a CLH [2] of 41.2 mL/min/g and a CLH [3] of 23.9 mL/min/g.
Work on C[C@H](NC(=O)CCc1nc2cccnc2n1Cc1ccccc1)c1ccccc1 yielded an IC50 (Autotaxin [1]) of 0.288 µM, a CLH [2] of 62 mL/min/g and a CLH [3] of 21.4 mL/min/g.
C[C@H](NC(=O)CCc1nc2cccnc2n1Cc1ccc(OC(F)(F)F)cc1)c1ccc(Cl)cc1 [CAMBRITAXESTAT] showed a Cmax [4] of 18.1 µM, a bioavailability at 7 h (in vivo [5]) of 75% and a bioavailability at 7 h (in vivo [6]) of 64%. It also gave a CLH [7] of 15 mL/min/g, an IC50 (Autotaxin [1]) of 0.014 to 0.024 µM and an AUC at 7 h [8] of 59.3 µM·h. For the same molecule, the “%max” value (Mus musculus [9]) was 89 - 93%, the IC50 (Autotaxin [10]) was 0.038 µM and the clearance [11] was 1.14 L/h/kg. It also gave an EC50 (Mus musculus [12]) of 0.008 µM, a fraction unbound [13] of 0.018 and a CLH [2] of 9.4 mL/min/g. For the same molecule, the half-life [14] was 60 min, the EC50 (Mus musculus [15]) was 0.046 µM and the “%max” value (Mus musculus [16]) was 89 - 93%. The Vd [17] was 1.3 L/kg, the half-life [18] was 78 min and the clearance [19] was 2.46 L/h/kg. For the same molecule, the Cmax [20] was 3.8 µM, the bioavailability at 20 h (in vivo [21]) was 28% and the “%max” value (Mus musculus [22]) was 89 - 93%. The AUC at 7 h [23] was 3.2 µM·h, the half-life [24] was 324 min and the EC50 (Mus musculus [25]) was 0.013 µM. For the same molecule, the fraction unbound [26] was 0.02, the Cmax [27] was 10.9 µM and the EC50 (Mus musculus [28]) was 0.03 µM. For the same molecule, the IC50 (Autotaxin [29]) was 0.001 µM, the AUC at 7 h [30] was 15.2 µM·h and the half-life [31] was 84 min. For the same molecule, the half-life [32] was 54 min, the “%max” value (Mus musculus [33]) was 89 - 93% and the Activity (Mus musculus [34]) was “Non-Toxic”. It also gave a CLH [3] of 44.1 mL/min/g.
Molecule O=C(CCc1nc2cccnc2n1Cc1ccccc1)NCc1ccccc1 has an IC50 (Autotaxin [29]) of 1.24 µM.
In the case of C[C@H](NC(=O)NCc1nc2cccnc2n1Cc1ccc(F)cc1)c1ccc(F)cc1, the IC50 (Autotaxin [1]) is reported as 1.05 µM, the half-life [14] is reported as 9 min and the Vd [17] is reported as 0.3 L/kg. It also gave a clearance [19] of 4.02 L/h/kg and a CLH [3] of 10 mL/min/g.
C[C@H](NC(=O)COc1nc2cccnc2n1Cc1ccc(OC(F)(F)F)cc1)c1ccc(Cl)cc1 showed an IC50 (Autotaxin [1]) of 0.099 µM, a half-life [35] of 12 min and a Vd [36] of 0.4 L/kg. It also gave a clearance [37] of 4.68 L/h/kg and a CLH [3] of 10.8 mL/min/g.
Molecule C[C@H](NC(=O)CCc1nc2ccncc2n1Cc1ccc(OC(F)(F)F)cc1)c1ccc(Cl)cc1 has an IC50 (Autotaxin [1]) of 0.034 µM, a half-life [14] of 8.4 min and a Vd [17] of 0.2 L/kg. The clearance [19] was 4.38 L/h/kg and the CLH [3] was 18.1 mL/min/g.
With O=C(CCc1nc2cccnc2n1Cc1ccccc1)NCCc1ccccc1 the IC50 (Autotaxin [29]) was 3.44 µM.
COc1ccc(CNC(=O)CCc2nc3cccnc3n2Cc2ccccc2)cc1 showed an IC50 (Autotaxin [1]) of 8.87 µM and an IC50 (Autotaxin [38]) of 0.04 µM.
Work on C[C@H](NC(=O)CSc1nc2cccnc2n1Cc1ccc(OC(F)(F)F)cc1)c1ccc(F)cc1 yielded an IC50 (Autotaxin [1]) of 0.019 µM, a half-life [14] of 12 min and a Vd [17] of 0.3 L/kg. It also gave a clearance [19] of 4.86 L/h/kg and a CLH [3] of 71.5 mL/min/g.
Molecule O=C(CCc1nc2cccnc2n1Cc1ccccc1)NCc1ccccc1F has an IC50 (Autotaxin [29]) of 1.25 µM.
COc1ccc(Cn2c(CCC(=O)N[C@@H](C)c3ccccc3)nc3cccnc32)cc1 gave an IC50 (Autotaxin [1]) of 0.318 µM, a half-life [35] of 10.2 min and a CLH [2] of 21.4 mL/min/g. The Vd [36] was 0.19 L/kg, the clearance [37] was 4.5 L/h/kg and the CLH [3] was 35 mL/min/g.
In the case of C[C@H](NC(=O)NCc1nc2cccnc2n1Cc1ccc(F)cc1)c1ccc(Cl)cc1, the IC50 (Autotaxin [1]) is reported as 0.414 µM.
C[C@H](NC(=O)CCc1nc2ccncc2n1Cc1ccc(F)cc1)c1ccc(F)cc1 showed an IC50 (Autotaxin [1]) of 0.333 µM.
C[C@H](NC(=O)CCc1nc2cccnc2n1Cc1ccc(F)cc1)c1ccc(F)cc1 gave an IC50 (Autotaxin [1]) of 0.444 µM.
